According to paper PMC4324493, “Synthesis, ^68Ga-Radiolabeling, and Preliminary In Vivo Assessment of a Depsipeptide-Derived Compound as a Potential PET/CT Infection Imaging Agent” (BioMed Research International, 2015):
Residues, ends and D or L forms follow the SMILES beside them. No end group written: not given here. *: point of attachment. DOTA = O=C(O)CN1CCN(CC(=O)O)CCN(CC(=O)*)CCN(CC(=O)O)CC1

How the values were obtained:
in vitro = assay type: cell-based; details: human; for CC50 at 120 h: MT-4 cells
Description: The reduction of 2,3-bis-(2-methoxy-4-nitro-5-sulfophenyl)-2-H-tetrazolium-5-carboxanilide (XTT) was used to determine the cellular cytotoxicity of TBIA101, DOTA-TBIA101, and ^natGa-DOTA-TBIA101, as described by Scudiero et al.. MT-4 cells were obtained through the NIH AIDS Reagent Program, Division of AIDS, NIAID, NIH: MT-4 from Dr. Douglas Richman and were cultured and all incubations were done in RPMI medium containing 10% fetal calf serum at 37°C and 5% CO2-atmosphere. A 6 × 10^5 cells/mL concentration was used to seed cells into 96-well culture plates (total cell number of 2 × 10^4 per well) followed by exposure to eight 5-fold dilutions of the stock compound solutions (1 mg/mL). The plates were incubated for 5 days before XTT was added to react for 4 h. Formazan production was quantified, measuring absorbance at 450 nm (reference wavelength 620 nm), and related to the absorbance of untreated control cells (RPMI background). Cytotoxicity was determined by extrapolating the inhibitory concentration at 50% (IC50).

[1] = tested on: Staphylococcus aureus (ATCC 25923) (S. aur); assay: Bacterial association assay (MALDI-TOF-MS), S. aur; assay type: binding; details: for affinity binding constant (K): S. aur 1.5 × 10^8 CFU, 20-100 μM compound, 37°C, 3 h, MALDI-TOF-MS; for bacterial binding and internalization (qualitative): S. aur, membrane-associated (sample 1) and cell-internalized (sample 2) fractions by MALDI-TOF-MS
Description: (§1) MALDI-TOF-MS analysis was performed on an Autoflex III MALDI-TOF mass spectrometer (Bruker, Coventry, United Kingdom) with a 337 nm nitrogen laser operating in a linear mode at an accelerated voltage of 20 kV. The α-cyano-4-hydroxycinnamic acid matrix was applied: the matrix solution was prepared by making a saturated solution of the matrix powder into TA30 solution (30% ACN and 70% water containing 0.1% TFA). A MALDI plate-sandwich method was used by spotting the compounds between spots of matrix solution. Analyses were done in triplicates; spectra were collected manually and the mass peak intensities were recorded. S. aur and E. coli strains were cultured at 37°C overnight and tested with the peptide (TBIA101), the peptide-conjugate (DOTA-TBIA101), and the gallium(III)-complexed derivative (^natGa-DOTA-TBIA101). The bacterial concentration was kept at 1.5 × 10^8 colony forming units (CFU). Five different concentrations (20, 40, 60, 80, and 100 μM) of the above-mentioned compounds were used for all experiments, following the described method. The final reaction volume was 600 μL. Bacteria and compound mixtures were incubated at 37°C in an orbital shaker at 100 rpm for 3 h. After incubation, the cells were centrifuged at 3000 ×g for 20 min and the supernatant was removed. The bacterial pellet was washed twice with 200 μL of phosphate buffered saline (pH 7.4) and 200 μL of 80% ACN containing 0.1% TFA was added to dissolve the pellet followed by vigorous mixing followed by centrifugation at 3000 ×g for 20 min. The supernatant (sample 1) was collected, representing the membrane-associated compound fraction. The residual pellet was treated with 200 μL of 80% ACN (sample 2), representing the cell-internalized compound fraction. Bacterial persistence in samples 1 and 2 was qualified with MALDI-TOF-MS.

E. coli (ATCC 25922) = assay: Bacterial association assay (MALDI-TOF-MS), E. coli; assay type: binding, Escherichia coli; details: for Kd: E. coli 1.5 × 10^8 CFU, 20-100 μM compound, 37°C, 3 h, MALDI-TOF-MS, read-out: affinity binding constant (K); for bacterial binding and internalization (qualitative): E. coli, membrane-associated (sample 1) and cell-internalized (sample 2) fractions by MALDI-TOF-MS
Description: as §1

Compound | CC50 at 120 h (in vitro) [µM] | affinity binding constant (K) [1] [nM] | bacterial binding and internalization (qualitative) [1] | Kd (E. coli (ATCC 25922)) [nM] | bacterial binding and internalization (qualitative) (E. coli (ATCC 25922)) | IC50 at 5 days (in vitro) [µM]
CC[C@H](C)[C@H](NC(=O)CNC(=O)CNC(=O)CN1CCN(CC(=O)O)CCN(CC(=O)O)CCN(CC(=O)O)CC1)C(=O)N[C@H](C(=O)N[C@@H](CC(C)C)C(=O)N[C@H](C(=O)N1CCC[C@H]1C(=O)N[C@@H](CC(C)C)C(=O)N1CCC[C@H]1C(N)=O)C(C)C)[C@@H](C)O [DOTA-TBIA101] ({DOTA}-GGITLVPLP-NH2) | 42.1 | 0.029 ± 0.006 | binding and no detectable internalization | 0.028 ± 0.006 | binding and no detectable internalization | –
CC[C@H](C)[C@H](NC(=O)[C@@H](NC(=O)[C@H](CC(C)C)NC(=O)[C@@H](NC(=O)[C@@H]1CCCN1C(=O)[C@H](CC(C)C)NC(=O)[C@@H]1CCCN1C(=O)CN1CCN(CC(=O)O)CCN(CC(=O)O)CCN(CC(=O)O)CC1)C(C)C)[C@@H](C)O)C(=O)NCC(=O)NCC(N)=O [natGa-DOTA-TBIA101, metal not drawn] ({DOTA}-PLPVLTIGG-NH2) | – | 2.97 ± 0.86 | internalization | 2.58 ± 1.04 | internalization | 33.7
GGITLVPLP-NH2 (C-terminus assumed) [TBIA101] | 63.2 | 0.023 ± 0.007 | binding and internalization | 0.022 ± 0.006 | binding and internalization | –
